Source: ChEMBL document CHEMBL5291721, “A preclinical secondary pharmacology resource illuminates target-adverse drug reaction associations of marketed drugs” (Nat Commun, 2023)
*1 amine or outer side, *2 acyl side, *3 side chain or, on linkers, in order; H or OH if unused. Where a SMILES comes first, the peptide text is derived from it. Bridges are numbered along the chain shown (N, C = ends). [ ]: non-standard residue; d: D form. The star is where a group is joined. hTyr(3S-OH,4S-OH,3'-OSO3H) = N[C@H](C(=O)O)[C@H](O)[C@@H](O)c1ccc(O)c(OS(=O)(=O)O)c1; Orn(4R-OH,5R-OH) = O=C([C@H](C[C@@H](O)[C@@H](O)N[*:3])N[*:1])[*:2]; Pro(3S-OH,4S-Me) = C[C@H]1CN[C@H](C(=O)O)[C@H]1O; X1 = CCCCCOc1ccc(-c2cc(-c3ccc(C(=O)*)cc3)no2)cc1; Gln(3R-OH) = NC(=O)C[C@@H](O)[C@H](N)C(=O)O; Hyp = O=C(O)[C@@H]1C[C@@H](O)CN1

Key:
[1] = biological target: T1, 5-hydroxytryptamine receptor 2B (Homo sapiens, UniProt P41595); type: functional, cell-based
[2] = biological target: T2, Amine oxidase [flavin-containing] A (Homo sapiens, UniProt P21397); type: functional
T2 sequence (P21397 whole entry): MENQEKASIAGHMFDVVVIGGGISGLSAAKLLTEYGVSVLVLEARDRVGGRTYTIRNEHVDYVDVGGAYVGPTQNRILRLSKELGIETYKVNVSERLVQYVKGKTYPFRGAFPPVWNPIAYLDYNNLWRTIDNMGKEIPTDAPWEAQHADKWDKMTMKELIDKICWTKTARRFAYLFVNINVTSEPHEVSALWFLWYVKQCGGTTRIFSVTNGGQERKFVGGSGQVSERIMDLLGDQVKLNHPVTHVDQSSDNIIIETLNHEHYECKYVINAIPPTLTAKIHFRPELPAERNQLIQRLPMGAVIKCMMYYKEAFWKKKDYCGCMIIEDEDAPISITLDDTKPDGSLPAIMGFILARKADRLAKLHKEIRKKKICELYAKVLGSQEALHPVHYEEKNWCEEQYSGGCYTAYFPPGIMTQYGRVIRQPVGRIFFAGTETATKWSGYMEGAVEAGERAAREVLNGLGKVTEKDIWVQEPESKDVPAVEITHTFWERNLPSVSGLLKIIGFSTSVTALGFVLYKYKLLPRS

Mu-type opioid receptor = Mu-type opioid receptor (Homo sapiens, UniProt P35372)
[3] = biological target: Sodium-dependent noradrenaline transporter (Homo sapiens, UniProt P23975)
Thromboxane A2 receptor = biological target: T3, Thromboxane A2 receptor (Homo sapiens, UniProt P21731); type: functional, cell-based
T3 sequence (P21731 whole entry): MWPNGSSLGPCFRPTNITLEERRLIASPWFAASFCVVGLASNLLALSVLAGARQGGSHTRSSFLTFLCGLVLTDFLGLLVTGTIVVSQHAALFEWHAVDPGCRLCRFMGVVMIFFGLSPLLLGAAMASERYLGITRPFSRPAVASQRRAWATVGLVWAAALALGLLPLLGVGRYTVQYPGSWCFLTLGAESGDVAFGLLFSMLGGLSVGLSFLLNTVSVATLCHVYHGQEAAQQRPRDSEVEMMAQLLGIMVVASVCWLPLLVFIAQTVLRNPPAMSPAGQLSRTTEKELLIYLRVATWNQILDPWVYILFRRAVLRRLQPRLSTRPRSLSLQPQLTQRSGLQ

Histamine H2 receptor = Histamine H2 receptor (Homo sapiens, UniProt P25021); type: functional, cell-based
[4] = biological target: T1, 5-hydroxytryptamine receptor 2B; type: functional, cell-based; remark: listed apart in the source
Histamine H3 receptor = Histamine H3 receptor (Homo sapiens, UniProt Q9Y5N1)
Further: assay procedure not described here.

T1 sequence (P41595 whole entry): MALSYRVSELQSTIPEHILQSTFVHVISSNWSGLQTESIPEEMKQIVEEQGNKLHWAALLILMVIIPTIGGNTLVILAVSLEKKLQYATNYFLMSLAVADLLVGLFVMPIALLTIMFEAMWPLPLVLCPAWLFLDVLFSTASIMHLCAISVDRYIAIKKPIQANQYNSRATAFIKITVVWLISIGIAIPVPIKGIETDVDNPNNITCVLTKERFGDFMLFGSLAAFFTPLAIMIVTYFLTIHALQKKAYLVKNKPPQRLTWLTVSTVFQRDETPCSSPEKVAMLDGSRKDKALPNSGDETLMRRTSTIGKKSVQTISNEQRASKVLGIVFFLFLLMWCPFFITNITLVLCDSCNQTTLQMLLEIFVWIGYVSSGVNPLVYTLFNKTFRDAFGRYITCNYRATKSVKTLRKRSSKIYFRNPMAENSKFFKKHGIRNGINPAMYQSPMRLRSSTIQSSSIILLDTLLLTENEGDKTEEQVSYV
Chain of Sodium-dependent noradrenaline transporter (P23975 whole entry): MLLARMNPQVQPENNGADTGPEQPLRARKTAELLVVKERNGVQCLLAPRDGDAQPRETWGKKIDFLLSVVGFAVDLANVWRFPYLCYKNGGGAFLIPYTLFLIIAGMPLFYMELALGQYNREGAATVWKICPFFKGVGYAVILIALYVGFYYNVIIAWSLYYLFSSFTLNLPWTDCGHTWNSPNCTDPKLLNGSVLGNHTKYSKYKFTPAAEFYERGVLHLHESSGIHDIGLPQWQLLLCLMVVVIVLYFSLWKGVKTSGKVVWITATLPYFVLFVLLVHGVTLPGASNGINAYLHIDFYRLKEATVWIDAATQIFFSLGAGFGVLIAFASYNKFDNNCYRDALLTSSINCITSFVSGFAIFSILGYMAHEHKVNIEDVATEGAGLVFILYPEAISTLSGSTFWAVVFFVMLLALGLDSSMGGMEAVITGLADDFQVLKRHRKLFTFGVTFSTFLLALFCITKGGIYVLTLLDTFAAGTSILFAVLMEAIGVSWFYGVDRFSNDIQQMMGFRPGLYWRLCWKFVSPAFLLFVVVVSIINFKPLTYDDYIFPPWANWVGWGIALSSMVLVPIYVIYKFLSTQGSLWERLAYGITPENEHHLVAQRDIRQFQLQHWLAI
Chain of Mu-type opioid receptor (P35372 whole entry): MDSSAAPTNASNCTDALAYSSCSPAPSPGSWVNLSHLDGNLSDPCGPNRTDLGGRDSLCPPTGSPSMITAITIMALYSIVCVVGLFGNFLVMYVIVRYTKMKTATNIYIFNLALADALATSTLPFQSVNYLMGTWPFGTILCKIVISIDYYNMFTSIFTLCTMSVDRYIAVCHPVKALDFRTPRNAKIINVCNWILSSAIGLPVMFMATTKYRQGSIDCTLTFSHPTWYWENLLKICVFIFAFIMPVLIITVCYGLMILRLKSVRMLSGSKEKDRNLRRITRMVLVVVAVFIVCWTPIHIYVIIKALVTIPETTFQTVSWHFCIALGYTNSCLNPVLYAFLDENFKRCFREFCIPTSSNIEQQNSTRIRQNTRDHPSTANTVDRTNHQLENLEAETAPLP
Chain of Histamine H2 receptor (P25021 whole entry): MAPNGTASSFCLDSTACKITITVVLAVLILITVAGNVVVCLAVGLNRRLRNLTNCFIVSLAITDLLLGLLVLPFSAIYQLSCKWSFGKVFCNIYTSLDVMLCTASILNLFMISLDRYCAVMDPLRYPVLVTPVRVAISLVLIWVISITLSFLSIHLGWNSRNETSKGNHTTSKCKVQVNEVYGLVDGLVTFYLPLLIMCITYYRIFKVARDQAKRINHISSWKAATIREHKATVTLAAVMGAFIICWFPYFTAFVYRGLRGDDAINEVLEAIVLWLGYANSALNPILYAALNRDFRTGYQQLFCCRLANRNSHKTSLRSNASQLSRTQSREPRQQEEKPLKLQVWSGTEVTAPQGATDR
Chain of Histamine H3 receptor (Q9Y5N1 whole entry): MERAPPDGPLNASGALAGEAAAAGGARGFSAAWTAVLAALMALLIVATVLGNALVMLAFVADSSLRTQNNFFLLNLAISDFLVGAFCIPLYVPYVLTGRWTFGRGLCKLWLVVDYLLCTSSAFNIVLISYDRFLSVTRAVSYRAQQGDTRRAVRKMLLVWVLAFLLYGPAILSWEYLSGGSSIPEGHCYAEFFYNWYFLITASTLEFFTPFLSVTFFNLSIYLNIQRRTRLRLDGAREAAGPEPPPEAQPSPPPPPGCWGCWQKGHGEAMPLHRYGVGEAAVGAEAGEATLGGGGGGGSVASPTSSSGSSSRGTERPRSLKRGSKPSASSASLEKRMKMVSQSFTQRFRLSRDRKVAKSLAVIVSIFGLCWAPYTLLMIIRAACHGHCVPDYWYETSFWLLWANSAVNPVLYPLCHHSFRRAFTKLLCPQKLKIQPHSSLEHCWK

| Compound | AC50 [1] [µM] | AC50 [2] [µM] | AC50 (Mu-type opioid receptor) [µM] | AC50 [3] [µM] | AC50 (Thromboxane A2 receptor) [µM] | AC50 (Histamine H2 receptor) [nM] | AC50 [4] [nM] | AC50 (Histamine H3 receptor) [µM] |
| --- | --- | --- | --- | --- | --- | --- | --- | --- |
| CN1CCC[C@@H]1Cc1c[nH]c2ccc(CCS(=O)(=O)c3ccccc3)cc12 | > 10 | > 30 | 8 | 17.8 | > 30 | – | – | – |
| COc1nccnc1NS(=O)(=O)c1ccc(N)cc1 | > 30 | > 30 | > 30 | > 30 | > 30 | – | – | – |
| O=C(Nc1cccc2c(=O)cc(-c3nnn[nH]3)oc12)c1ccc(OCCCCc2ccccc2)cc1 | > 30 | > 30 | 4.64 | 7.06 | > 30 | – | – | – |
| NC(=O)c1nc(F)c[nH]c1=O | > 30 | > 30 | > 30 | > 30 | > 30 | – | – | – |
| CN(C)CCCN1C(=O)c2cc([N+](=O)[O-])ccc2Oc2ccccc21 | > 30 | > 30 | > 30 | > 30 | > 30 | – | – | – |
| O=S(=O)(O)CCS [2-MERCAPTOETHANESULFONIC ACID] | > 30 | > 30 | > 30 | > 30 | > 30 | – | – | – |
| O=C(O)COc1nn(Cc2ccccc2)c2ccccc12 [BENDAZAC] | > 30 | > 30 | > 30 | > 30 | > 3 | – | – | – |
| Cc1ccc([C@@H]2O[C@H](CO)[C@@H](O)[C@H](O)[C@H]2O)cc1Cc1ccc(-c2ccc(F)cc2)s1 [CANAGLIFLOZIN ANHYDROUS] | > 30 | > 30 | > 30 | > 30 | > 30 | – | – | – |
| O=C(O)CCCc1ccc(N(CCCl)CCCl)cc1 [CHLORAMBUCIL] | > 30 | > 30 | > 30 | > 30 | > 30 | – | – | – |
| CN(C)CCN(Cc1ccc(Cl)cc1)c1ccccn1 [CHLOROPYRAMINE] | > 30 | > 30 | 5.22 | 19.4 | > 30 | – | – | – |
| O=C(O)c1cc(=O)c2ccccc2o1 [CHROMOCARB] | > 30 | > 30 | > 30 | > 30 | > 30 | – | – | – |
| CN(CC(=O)O)C(=N)N [CREATINE] | > 30 | > 30 | > 30 | > 30 | > 30 | – | – | – |
| N[C@@H](CSSC[C@H](N)C(=O)O)C(=O)O [CYSTINE] | > 30 | > 30 | > 30 | > 30 | > 30 | – | – | – |
| Cn1c(=O)c2c(ncn2CC(O)CO)n(C)c1=O (configuration not stated) [DYPHYLLINE] | > 30 | > 30 | > 30 | > 30 | > 30 | – | – | – |
| C[C@]12CC[C@@H]3c4ccc(O)cc4CC[C@H]3[C@@H]1CC[C@@H]2OC(=O)CCC1CCCC1 [ESTRADIOL CYPIONATE] | > 30 | > 30 | > 30 | > 30 | > 30 | – | – | – |
| CC1(C)O[C@@H]2C[C@H]3[C@@H]4CCC5=CC(=O)CC[C@]5(C)[C@@]4(F)[C@@H](O)C[C@]3(C)[C@]2(C(=O)CCl)O1 [HALCINONIDE] | > 30 | > 30 | > 30 | > 30 | > 30 | – | – | – |
| C[C@]12CCC(=O)C=C1CC[C@@H]1[C@@H]2[C@@H](O)C[C@@]2(C)[C@H]1CC[C@]2(O)C(=O)COC(=O)CCC(=O)O [HYDROCORTISONE HEMISUCCINATE ANHYDROUS] | > 30 | > 30 | > 30 | > 30 | > 30 | – | – | – |
| N=C(N)NCc1cccc([123I])c1 [IOBENGUANE I 123] | > 30 | 26.4 | 22 | 8.75 | > 30 | – | – | – |
| CC(C)(N)C(=O)N[C@H](Cc1c[nH]c2ccccc12)C(=O)N[C@H](Cc1c[nH]c2ccccc12)NC=O [MACIMORELIN] | > 30 | > 30 | 0.75 | > 30 | > 30 | – | – | – |

| Compound | AC50 [1] [µM] | AC50 [2] [µM] | AC50 (Mu-type opioid receptor) [µM] | AC50 [3] [µM] | AC50 (Thromboxane A2 receptor) [µM] | AC50 (Histamine H2 receptor) [nM] | AC50 [4] [nM] | AC50 (Histamine H3 receptor) [µM] |
| --- | --- | --- | --- | --- | --- | --- | --- | --- |
| C=C1c2c(Cl)ccc(O)c2C(=O)C2=C(O)[C@]3(O)C(=O)C(C(N)=O)=C(O)[C@@H](N(C)C)[C@@H]3[C@@H](O)[C@H]12 [MECLOCYCLINE] | > 30 | > 30 | > 30 | > 30 | > 30 | – | – | – |
| Cc1cc2c(OCC(O)CNC(C)C)cccc2[nH]1 (configuration not stated) [MEPINDOLOL] | > 30 | > 30 | 21 | 5.31 | > 30 | – | – | – |
| CC[C@@H](CO)NC(=O)[C@@H]1C=C2c3cccc4[nH]cc(c34)C[C@H]2N(C)C1 [METHYLERGONOVINE] | – | – | – | – | – | 58 | 25.7 | > 30 |
| CCCCCOc1ccc(-c2cc(-c3ccc(C(=O)N[C@H]4C[C@@H](O)[C@@H](O)NC(=O)[C@@H]5[C@@H](O)[C@@H](C)CN5C(=O)[C@H]([C@H](O)CC(N)=O)NC(=O)[C@H]([C@H](O)[C@@H](O)c5ccc(O)c(OS(=O)(=O)O)c5)NC(=O)[C@@H]5C[C@@H](O)CN5C(=O)[C@H]([C@@H](C)O)NC4=O)cc3)no2)cc1 [MICAFUNGIN] (X1-[Orn(4R-OH,5R-OH)]T[Hyp][hTyr(3S-OH,4S-OH,3'-OSO3H)][Gln(3R-OH)][Pro(3S-OH,4S-Me)]; lactam 1-C) | > 30 | > 30 | 7.68 | 14.6 | 7.12 | – | – | – |
| CCOc1cc(N)c(Cl)cc1C(=O)NCC1CN(Cc2ccc(F)cc2)CCO1 (configuration not stated) [MOSAPRIDE] | > 30 | > 30 | > 30 | > 30 | > 30 | – | – | – |
| CCOc1ccc2ccccc2c1C(=O)N[C@@H]1C(=O)N2[C@@H]1SC(C)(C)[C@@H]2C(=O)O [NAFCILLIN] | > 30 | > 30 | > 30 | > 30 | > 30 | – | – | – |
| CN1CCC[C@H]1c1cccnc1 [NICOTINE] | > 30 | > 30 | > 30 | > 30 | > 30 | – | – | – |
| C#C[C@]1(O)CC[C@H]2[C@@H]3CCC4=C(CCC(=O)C4)[C@H]3CC[C@@]21C [NORETHYNODREL] | > 30 | > 30 | > 30 | > 30 | 24.2 | – | – | – |
| CCCCCCCCCCC[C@@H](C[C@@H]1OC(=O)[C@H]1CCCCCC)OC(=O)[C@H](CC(C)C)NC=O [ORLISTAT] | > 30 | > 30 | > 30 | > 30 | > 30 | – | – | – |
| O=C1[C@H]2CCCC[C@H]2C(=O)N1CCCCN1CCN(c2nsc3ccccc23)CC1 [PEROSPIRONE] | > 30 | > 30 | 9.84 | 2.98 | 7.44 | – | – | – |
| CN(C)CCC(c1ccccc1)c1ccccn1 (configuration not stated) [PHENIRAMINE] | > 30 | > 30 | > 30 | 26.3 | > 30 | – | – | – |
| CC(C)COc1ccc(CNC(=O)N(Cc2ccc(F)cc2)C2CCN(C)CC2)cc1 [PIMAVANSERIN] | > 30 | > 30 | 16.7 | 6.92 | > 3 | – | – | – |
| CC(C)(C)C(=O)NCCCC(=O)O [PIVAGABINE] | > 30 | > 30 | > 30 | > 30 | > 30 | – | – | – |
| CC(C)[N+](C)(CCOC(=O)C1c2ccccc2Oc2ccccc21)C(C)C [PROPANTHELINE] | > 30 | > 30 | > 30 | > 30 | > 30 | – | – | – |
| CN(C)C(=O)c1nc(CNC(=O)CN)n(-c2ccc(Cl)cc2C(=O)c2ccccc2Cl)n1 [RILMAZAFONE] | > 30 | > 30 | > 30 | > 30 | > 30 | – | – | – |
| NC(=O)NS(=O)(=O)c1ccc(N)cc1 [SULFACARBAMIDE] | > 30 | > 30 | > 30 | > 30 | > 30 | – | – | – |
| CCCCCCCCNC(C)C(O)c1ccc(SC(C)C)cc1 (configuration not stated) [SULOCTIDIL] | > 30 | > 30 | 7.07 | 1.39 | – | – | – | – |
| NCCc1ccc(O)cc1 [TYRAMINE] | > 30 | > 30 | > 30 | 22.2 | > 30 | – | – | – |
| CCCCCCCCCCCCCCCC(=O)OC/C=C(C)/C=C/C=C(C)/C=C/C1=C(C)CCCC1(C)C [VITAMIN A PALMITATE] | > 30 | > 30 | > 30 | > 30 | > 30 | – | – | – |
